Measured values taken from patent US10280159B2 (AbbVie Deutschland GmbH & Co. KG, priority 2015, dated 2019).
Read-outs that look alike come from different tables or passages of the source.

Key:
Assay type in all cases: cell-based
[1] = molecular target: T1, human S1PR4 (Homo sapiens, UniProt O95977); test: Intracellular Ca2+ release (FLIPR) agonist potency, S1P4
T1 construct: host or cells: CHO-K1
T1 sequence (O95977 1-384): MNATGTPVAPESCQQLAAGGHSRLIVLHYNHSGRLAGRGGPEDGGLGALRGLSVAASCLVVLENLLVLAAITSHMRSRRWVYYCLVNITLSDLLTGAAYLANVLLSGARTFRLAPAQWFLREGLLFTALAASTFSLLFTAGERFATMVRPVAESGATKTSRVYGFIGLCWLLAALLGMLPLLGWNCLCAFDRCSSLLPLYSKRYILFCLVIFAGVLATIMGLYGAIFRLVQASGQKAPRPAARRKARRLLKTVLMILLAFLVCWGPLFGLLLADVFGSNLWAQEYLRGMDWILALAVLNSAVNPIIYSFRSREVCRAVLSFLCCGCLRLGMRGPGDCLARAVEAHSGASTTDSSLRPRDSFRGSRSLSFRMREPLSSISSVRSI
How it was run: (§1)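 Agonist potency from intracellular Ca²⁺ release measured by FLIPR, with EC50 fitted after normalization to phospho-fingolimod curves. Recombinant CHO-K1 lines co-expressing the respective human S1P receptor, aequorin and Gq/i5.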

[2] = molecular target: T2, human S1PR1 (Homo sapiens, UniProt P21453); test: Intracellular Ca2+ release (FLIPR) agonist potency, S1P1
T2 construct: host or cells: CHO-K1
How it was run: as §1

[3] = molecular target: T3, human S1PR5 (Homo sapiens, UniProt Q9H228); test: Intracellular Ca2+ release (FLIPR) agonist potency, S1P5; conditions: recombinant CHO-K1 cells expressing human S1PR5, aequorin, Gq/i5, Calcium 5 FLIPR
T3 construct: host or cells: CHO-K1
How it was run: as §1

[4] = recombinant CHO-K1 cells expressing human S1PR4, aequorin, Gq/i5, Calcium 5 FLIPR, read-out: S1P4 EC50
[5] = recombinant CHO-K1 cells expressing human S1PR1, aequorin, Gq/i5, Calcium 5 FLIPR, read-out: S1P1 EC50

T2 sequence (P21453 whole entry): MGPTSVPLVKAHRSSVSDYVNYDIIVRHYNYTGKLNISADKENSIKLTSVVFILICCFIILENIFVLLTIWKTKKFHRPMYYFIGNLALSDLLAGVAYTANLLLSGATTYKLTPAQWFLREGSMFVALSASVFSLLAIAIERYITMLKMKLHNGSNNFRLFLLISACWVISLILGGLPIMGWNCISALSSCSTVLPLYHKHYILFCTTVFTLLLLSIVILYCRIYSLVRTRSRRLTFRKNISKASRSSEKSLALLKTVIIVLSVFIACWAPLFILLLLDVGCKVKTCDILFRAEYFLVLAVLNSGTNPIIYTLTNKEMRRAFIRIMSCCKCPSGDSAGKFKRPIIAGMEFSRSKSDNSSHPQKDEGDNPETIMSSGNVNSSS
T3 sequence (Q9H228 whole entry): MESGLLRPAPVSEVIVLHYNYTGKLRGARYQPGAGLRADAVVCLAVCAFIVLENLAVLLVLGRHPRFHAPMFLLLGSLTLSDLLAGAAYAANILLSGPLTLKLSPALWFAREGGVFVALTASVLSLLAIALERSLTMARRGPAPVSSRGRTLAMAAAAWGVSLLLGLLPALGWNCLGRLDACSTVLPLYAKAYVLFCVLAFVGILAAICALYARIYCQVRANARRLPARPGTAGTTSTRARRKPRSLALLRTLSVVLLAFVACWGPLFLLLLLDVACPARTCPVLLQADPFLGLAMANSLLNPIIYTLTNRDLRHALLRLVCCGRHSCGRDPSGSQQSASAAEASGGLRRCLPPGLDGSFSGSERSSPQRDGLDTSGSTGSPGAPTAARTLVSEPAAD

Row | Compound | EC50 [1, 4] [µM] | EC50 [2, 5] [µM] | EC50 ([3]; read-out: S1P5 EC50 range) [µM] | EC50 [1] [µM] | EC50 [2] [µM] | EC50 ([3]; S1P5 EC50 range) [µM]
1 | O=C(O)C1(CNC2COc3cc(OCc4c(Cl)cccc4Cl)ccc3C2)CC1 (stereo not drawn) [Compound 49, 1-(((7-((2,6-dichlorobenzyl)oxy)chroman-3-yl)amino)methyl)cyclopropanecarboxylic acid] | < 1 | > 1 | 0.1 to 1 | – | – | –
2 | CCc1cccc(F)c1COc1ccc2c(c1)OCC(N(C)CC(=O)O)C2 (stereo not drawn) [Compound 72, 2-((7-((2-ethyl-6-fluorobenzyl)oxy)chroman-3-yl)(methyl)amino)acetic acid] | < 1 | > 1 | < 0.01 | – | – | –
3 | CC(Oc1ccc2c(c1)OCC(N1CC(C(=O)O)C1)C2)c1ccccc1F (stereo not drawn) [Compound 107, 1-[7-[1-(2-fluorophenyl)ethoxy]chroman-3-yl]azetidine-3-carboxylic acid] | > 1 | > 1 | 1 to 10 | – | – | –
4 | O=C(O)C1CN(C2COc3cc(OCc4cc(F)cc(C(F)(F)F)c4)ccc3C2)C1 (stereo not drawn) [Compound 90, 1-[7-[[3-fluoro-5-(trifluoromethyl)phenyl]methoxy]chroman-3-yl]azetidine-3-carboxylic acid] | < 1 | > 1 | 0.01 to 0.1 | – | – | –
5 | CCc1cccc(F)c1COc1ccc2c(c1)OCC(N1CCC(C(=O)O)C1)C2 (stereo not drawn) [Compound 127, 1-(7-((2-ethyl-6-fluorobenzyl)oxy)chroman-3-yl)pyrrolidine-3-carboxylic acid] | < 1 | > 1 | < 0.01 | – | – | –
6 | O=C(O)C1CN(C2COc3cc(OCc4cc(F)ccc4C(F)(F)F)ccc3C2)C1 (stereo not drawn) [Compound 91, 1-[7-[[5-fluoro-2-(trifluoromethyl)phenyl]methoxy]chroman-3-yl]azetidine-3-carboxylic acid] | > 1 | > 1 | 0.1 to 1 | – | – | –
7 | O=C(O)C1(NC2COc3cc(OCc4c(Cl)cccc4Cl)ccc3C2)CCC1 (stereo not drawn) [Compound 119, 1-((7-((2,6-dichlorobenzyl)oxy)chroman-3-yl)amino)cyclobutane-1-carboxylic acid] | > 1 | > 1 | 1 to 10 | – | – | –
8 | O=C(O)C1CN(C2COc3cc(OCCOc4ccc(F)cc4)ccc3C2)C1 (stereo not drawn) [Compound 93, 1-[7-[2-(4-fluorophenoxy)ethoxy]chroman-3-yl]azetidine-3-carboxylic acid] | > 1 | > 1 | 1 to 10 | – | – | –
9 | N#Cc1ccc(COc2ccc3c(c2)OCC(N2CC(C(=O)O)C2)C3)c(F)c1 (stereo not drawn) [Compound 89, 1-[7-[(4-cyano-2-fluoro-phenyl)methoxy]chroman-3-yl]azetidine-3-carboxylic acid] | > 1 | > 1 | 1 to 10 | – | – | –
10 | CCc1cccc(Cl)c1COc1ccc2c(c1)OCC(NC1(C(=O)O)CCC1)C2 (stereo not drawn) [Compound 120, 1-((7-((2-chloro-6-ethylbenzyl)oxy)chroman-3-yl)amino)cyclobutane-1-carboxylic acid] | < 1 | < 1 | 0.01 to 0.1 | – | – | –
11 | O=C(O)C1CN(C2COc3cc(OCc4cccc(C(F)(F)F)c4F)ccc3C2)C1 (stereo not drawn) [Compound 94, 1-[7-[[2-fluoro-3-(trifluoromethyl)phenyl]methoxy]chroman-3-yl]azetidine-3-carboxylic acid] | > 1 | > 1 | 1 to 10 | – | – | –
12 | O=C(O)C1CN(C2COc3cc(C#Cc4cccc(F)c4F)ccc3C2)C1 (stereo not drawn) [Compound 26, 1-(7-((2,3-difluorophenyl)ethynyl)chroman-3-yl)azetidine-3-carboxylic acid] | > 1 | > 1 | 0.01 to 0.1 | – | – | –
13 | CCOc1ccc(C#Cc2ccc3c(c2)OCC(N2CC(C(=O)O)C2)C3)cc1 (stereo not drawn) [Compound 45, 1-(7-((4-ethoxyphenyl)ethynyl)chroman-3-yl)azetidine-3-carboxylic acid] | > 1 | < 1 | 0.1 to 1 | – | – | –
14 | Cc1ccc(COc2ccc3c(c2)OCC(N2CC(C(=O)O)C2)C3)c(F)c1 (stereo not drawn) [Compound 88, 1-[7-[(2-fluoro-4-methyl-phenyl)methoxy]chroman-3-yl]azetidine-3-carboxylic acid] | > 1 | > 1 | 1 to 10 | – | – | –
15 | O=C(O)C1CN(C2COc3cc(OCc4cccc(C(F)(F)F)c4)ccc3C2)C1 (stereo not drawn) [Compound 59, 1-(7-((3-(trifluoromethyl)benzyl)oxy)chroman-3-yl)azetidine-3-carboxylic acid] | < 1 | > 1 | 0.1 to 1 | – | – | –
16 | CCc1cccc(F)c1COc1ccc2c(c1)OC[C@@H](NCc1cc(O)no1)C2 [Compound 136, (S)-5-(((7-((2-ethyl-6-fluorobenzyl)oxy)chroman-3-yl)amino)methyl)isoxazol-3-ol] | – | – | – | < 1 | > 1 | < 0.01

Second part, led by results:

Row | EC50 [1, 4] [µM] | EC50 [2, 5] [µM] | EC50 ([3]; read-out: S1P5 EC50 range) [µM] | Compound | EC50 [1] [µM] | EC50 [2] [µM] | EC50 ([3]; S1P5 EC50 range) [µM]
17 | > 1 | > 1 | 1 to 10 | O=C(O)C1CN(C2COc3cc(OCC4CC4)ccc3C2)C1 (stereo not drawn) [Compound 231, 1-[7-(cyclopropylmethoxy)chroman-3-yl]azetidine-3-carboxylic acid] | – | – | –
18 | > 1 | > 1 | 1 to 10 | O=C(O)C1CN(C2COc3c(cccc3OCc3c(Cl)cccc3Cl)C2)C1 (stereo not drawn) [Compound 225, 1-[8-[(2,6-dichlorophenyl)methoxy]chroman-3-yl]azetidine-3-carboxylic acid] | – | – | –
19 | > 1 | > 1 | 1 to 10 | O=C(O)COC1CCc2cc(OCc3cc(Cl)ccc3F)ccc2C1 (stereo not drawn) [Compound 174, 2-[6-[(5-chloro-2-fluoro-phenyl)methoxy]tetralin-2-yl]oxyacetic acid] | – | – | –
20 | < 1 | > 1 | < 0.01 | CCc1cccc(F)c1COc1ccc2c(c1)OCC(N1CCC(CC(=O)O)C1)C2 (stereo not drawn) [Compound 130, 2-(1-(7-((2-ethyl-6-fluorobenzyl)oxy)chroman-3-yl)pyrrolidin-3-yl)acetic acid] | – | – | –
21 | > 1 | > 1 | 0.1 to 1 | CCc1cccc(Cl)c1COc1ccc2c(c1)CCC(OCC(=O)O)C2 (single isomer, unassigned) [Compound 239] | – | – | –
22 | > 1 | > 1 | 0.1 to 1 | O=C(O)COC1CCc2cc(OCc3c(F)cccc3Cl)ccc2C1 (stereo not drawn) [Compound 169, 2-[6-[(2-chloro-6-fluoro-phenyl)methoxy]tetralin-2-yl]oxyacetic acid] | – | – | –
23 | < 1 | > 1 | < 0.01 | CCc1cccc(F)c1COc1ccc2c(c1)OC[C@@H](N1CC(C)(C(=O)O)C1)C2 [Compound 139, (S)-1-(7-((2-ethyl-6-fluorobenzyl)oxy)chroman-3-yl)-3-methylazetidine-3-carboxylic acid] | – | – | –
24 | > 1 | > 1 | 1 to 10 | O=C(O)C1CN(C2COc3cc(OCCc4ccccc4Cl)ccc3C2)C1 (stereo not drawn) [Compound 227, 1-[7-[2-(2-chlorophenyl)ethoxy]chroman-3-yl]azetidine-3-carboxylic acid] | – | – | –
25 | > 1 | > 1 | < 0.01 | CC1(C(=O)O)CN([C@@H]2COc3cc(OCc4c(Cl)cccc4Cl)ccc3C2)C1 [Compound 138, (S)-1-(7-((2,6-dichlorobenzyl)oxy)chroman-3-yl)-3-methylazetidine-3-carboxylic acid] | – | – | –
26 | < 1 | > 1 | < 0.01 | CCc1cccc(F)c1COc1ccc2c(c1)OCC(N1CC(C(=O)O)C1)C2 (single isomer, unassigned) [Compound 146, 1-(7-((2-ethyl-6-fluorobenzyl)oxy)chroman-3-yl)azetidine-3-carboxylic acid] | – | – | –
27 | > 1 | > 1 | 1 to 10 | COc1cccc(F)c1COc1ccc2c(c1)CCC(OCC(=O)O)C2 (stereo not drawn) [Compound 157, 2-[6-[(2-fluoro-6-methoxy-phenyl)methoxy]tetralin-2-yl]oxyacetic acid] | – | – | –
28 | > 1 | > 1 | 1 to 10 | O=C(O)COC1CCc2cc(OCc3ccc(Cl)c(Cl)c3)ccc2C1 (stereo not drawn) [Compound 199, 2-[6-[(3,4-dichlorophenyl)methoxy]tetralin-2-yl]oxyacetic acid] | – | – | –
29 | > 1 | > 1 | 1 to 10 | COc1ccc(Cl)cc1COc1ccc2c(c1)CCC(OCC(=O)O)C2 (stereo not drawn) [Compound 176, 2-[6-[(5-chloro-2-methoxy-phenyl)methoxy]tetralin-2-yl]oxyacetic acid] | – | – | –
30 | > 1 | > 1 | 0.1 to 1 | O=C(O)C1CN(C2COc3cc(OCc4c(Cl)cccc4Cl)ccc3C2)C1 (single isomer, unassigned) [Compound 145, 1-(7-((2,6-dichlorobenzyl)oxy)chroman-3-yl)azetidine-3-carboxylic acid] | – | – | –
31 | > 1 | > 1 | 1 to 10 | CCCC1(C(=O)O)CN([C@@H]2COc3cc(OCc4c(Cl)cccc4Cl)ccc3C2)C1 [Compound 141, (S)-1-(7-((2,6-dichlorobenzyl)oxy)chroman-3-yl)-3-propylazetidine-3-carboxylic acid] | – | – | –
